Laboratory results as given in patent US20240246937A1 (MERCK SHARP & DOHME LLC, priority 2021, published 2024).

Each compound was assayed against recombinant IL4I1 (Homo sapiens (Human), UniProt Q96RQ9) (assay: IL4I1 Enzymatic Assay (Amplex Red/HRP coupled fluorescence detection of H2O2)). Conditions: 240 min; recombinant IL4I1, four-hour pre-incubation with compound.
recombinant IL4I1, sequence (Q96RQ9 22-567): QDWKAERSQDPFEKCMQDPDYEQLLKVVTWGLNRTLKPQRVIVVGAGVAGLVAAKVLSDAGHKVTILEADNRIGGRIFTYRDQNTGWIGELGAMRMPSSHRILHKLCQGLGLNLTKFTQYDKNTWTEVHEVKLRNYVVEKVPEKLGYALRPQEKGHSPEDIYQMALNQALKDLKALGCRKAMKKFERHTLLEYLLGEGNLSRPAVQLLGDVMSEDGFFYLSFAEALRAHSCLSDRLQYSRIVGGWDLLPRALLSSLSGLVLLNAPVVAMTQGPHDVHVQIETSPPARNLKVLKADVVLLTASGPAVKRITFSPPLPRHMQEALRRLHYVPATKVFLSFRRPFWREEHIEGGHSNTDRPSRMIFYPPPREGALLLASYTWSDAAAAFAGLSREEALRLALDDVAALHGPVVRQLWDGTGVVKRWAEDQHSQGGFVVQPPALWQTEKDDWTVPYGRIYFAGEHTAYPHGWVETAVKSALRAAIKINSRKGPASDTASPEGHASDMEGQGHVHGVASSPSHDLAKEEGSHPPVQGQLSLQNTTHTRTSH
Assay type: biochemical
How it was run: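 Recombinant human IL4I1 (1 nM final) pre-incubated 4 h with compound at ambient temperature in 50 mM Hepes pH 7.0, 0.005% Tween20. Started with 1 mM each Phe/Tyr/Trp plus Amplex Red/HRP; H2O2-derived resorufin fluorescence read after 120 min; EC50 from ten-point 1:3 titration, four-parameter fit.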
N#CC1(N2CCN(Cc3nnc(-c4ccccc4)s3)C(=O)C2=O)CC1 [Example 308, 1-(2,3-dioxo-4-((5-phenyl-1,3,4-thiadiazol-2-yl)methyl)piperazin-1-yl)cyclopropane-1-carbonitrile] was tested, and the EC50 was 35 nM. With O=C1C(=O)N(C2CCCC2)CCN1Cc1nnc(N2CCCCC2)s1 [Example 309, 1-cyclopentyl-4-((5-(piperidin-1-yl)-1,3,4-thiadiazol-2-yl)methyl)piperazine-2,3-dione] the EC50 was 41 nM. Compound O=C1C(=O)N(C2CCCC2)CCN1Cc1nnc(N2CCCC2)s1 [Example 310, 1-cyclopentyl-4-((5-(pyrrolidin-1-yl)-1,3,4-thiadiazol-2-yl)methyl)piperazine-2,3-dione] has an EC50 of 41 nM. Compound O=C1C(=O)N(C2CCCC2)CCN1Cc1nnc(N2CC[C@H](F)C2)s1 [Example 311, (S)-1-cyclopentyl-4-((5-(3-fluoropyrrolidin-1-yl)-1,3,4-thiadiazol-2-yl)methyl)piperazine-2,3-dione] has an EC50 of 60 nM. Work on O=C1C(=O)N(C2CCCC2)CCN1Cc1nnc(N2CC[C@H](CF)C2)s1 [Example 312, (S)-1-cyclopentyl-4-((5-(3-(fluoromethyl)pyrrolidin-1-yl)-1,3,4-thiadiazol-2-yl)methyl)piperazine-2,3-dione] yielded an EC50 of 69 nM. With O=C1C(=O)N(C2CCCC2)CCN1Cc1nnc(N2CC3CC3C2)s1 (stereo not shown) [Example 313, 1-((5-(3-azabicyclo[3.1.0]hexan-3-yl)-1,3,4-thiadiazol-2-yl)methyl)-4-cyclopentylpiperazine-2,3-dione] the EC50 was 47 nM. Work on O=C1C(=O)N(C2CCCC2)CCN1Cc1ccc(N2CCCC2)nn1 [Example 314, 1-cyclopentyl-4-((6-(pyrrolidin-1-yl)pyridazin-3-yl)methyl)piperazine-2,3-dione] yielded an EC50 of 43 nM. O=C1C(=O)N(C2CCCC2)CCN1Cc1ccc(N2CCCCC2)nn1 [Example 316, 1-cyclopentyl-4-((6-(piperidin-1-yl)pyridazin-3-yl)methyl)piperazine-2,3-dione] was tested, and the EC50 was 32 nM. For O=C1C(=O)N(C2CCCC2)CCN1Cc1ccc(N2CCOCC2)nn1 [Example 317, 1-cyclopentyl-4-((6-morpholinopyridazin-3-yl)methyl)piperazine-2,3-dione], the EC50 was 45 nM. O=C1C(=O)N(C2CCCC2)CCN1Cc1ccc(N2CCC2)nn1 [Example 318, 1-((6-(azetidin-1-yl)pyridazin-3-yl)methyl)-4-cyclopentylpiperazine-2,3-dione] was tested, and the EC50 was 36 nM. Compound O=C1C(=O)N(C2CCCC2)CCN1Cc1ccc(N2CCC(F)(F)C2)nn1 [Example 319, 1-cyclopentyl-4-((6-(3,3-difluoropyrrolidin-1-yl)pyridazin-3-yl)methyl)piperazine-2,3-dione] has an EC50 of 30 nM. Compound O=C1C(=O)N(C2CCCC2)CCN1Cc1ccc(N2CC3CC3C2)nn1 (stereo not shown) [Example 320, 1-((6-(3-azabicyclo[3.1.0]hexan-3-yl)pyridazin-3-yl)methyl)-4-cyclopentylpiperazine-2,3-dione] has an EC50 of 20 nM. For O=C1C(=O)N(C2CCCC2)CCN1Cc1ccc(-n2ccnn2)nn1 [Example 321, 1-((6-(1H-1,2,3-triazol-1-yl)pyridazin-3-yl)methyl)-4-cyclopentylpiperazine-2,3-dione], the EC50 was 21 nM. O=C1C(=O)N(C2CCCC2)CCN1Cc1ccc(-n2nccn2)nn1 [Example 322, 1-((6-(2H-1,2,3-triazol-2-yl)pyridazin-3-yl)methyl)-4-cyclopentylpiperazine-2,3-dione] gave an EC50 of 28 nM. With O=C1C(=O)N(C2CCCC2)CCN1Cc1nnc(-n2nccn2)s1 [Example 323, 1-((5-(2H-1,2,3-triazol-2-yl)-1,3,4-thiadiazol-2-yl)methyl)-4-cyclopentylpiperazine-2,3-dione] the EC50 was 157 nM. O=C1C(=O)N(C2CCC2)CCN1Cc1cnc(-n2nccn2)cn1 [Example 324, 1-((5-(2H-1,2,3-triazol-2-yl)pyrazin-2-yl)methyl)-4-cyclobutylpiperazine-2,3-dione] gave an EC50 of 53 nM. O=C1C(=O)N(C23CC(C2)C3)CCN1Cc1cnc(-n2nccn2)cn1 [Example 325, 1-((5-(2H-1,2,3-triazol-2-yl)pyrazin-2-yl)methyl)-4-(bicyclo[1.1.1]pentan-1-yl)piperazine-2,3-dione] showed an EC50 of 33 nM. O=C1C(=O)N([C@H]2C[C@@H](c3ccccc3)C2)CCN1Cc1ccc(-n2nccn2)nn1 [Example 326, 1-((6-(2H-1,2,3-triazol-2-yl)pyridazin-3-yl)methyl)-4-((cis)-3-phenylcyclobutyl)piperazine-2,3-dione] was tested, and the EC50 was 20 nM. For O=C1C(=O)N([C@H]2C[C@@H](c3ccccc3)C2)CCN1Cc1ccc(-n2ccnn2)nn1 [Example 327, 1-((6-(1H-1,2,3-triazol-1-yl)pyridazin-3-yl)methyl)-4-((cis)-3-phenylcyclobutyl)piperazine-2,3-dione], the EC50 was 16 nM. O=c1c(=O)n(C2CCCC2)ccn1Cc1ccc(-n2ccnn2)nn1 [Example 328, 1-((6-(1H-1,2,3-triazol-1-yl)pyridazin-3-yl)methyl)-4-cyclopentyl-1,4-dihydropyrazine-2,3-dione] showed an EC50 of 7 nM. With O=c1c(=O)n(C2CCC2)ccn1Cc1ccc(-n2cccn2)nn1 [Example 329, 1-((6-(1H-pyrazol-1-yl)pyridazin-3-yl)methyl)-4-cyclobutyl-1,4-dihydropyrazine-2,3-dione] the EC50 was 15 nM. O=c1c(=O)n(C2CCC2)ccn1Cc1ccc(-n2ccnc2)nn1 [Example 330, 1-((6-(1H-imidazol-1-yl)pyridazin-3-yl)methyl)-4-cyclobutyl-1,4-dihydropyrazine-2,3-dione] showed an EC50 of 16 nM. O=c1c(=O)n([C@H]2C[C@H]3C[C@H]3C2)ccn1Cc1ccc(-n2ccnn2)nn1 [Example 331, 1-((6-(1H-1,2,3-triazol-1-yl)pyridazin-3-yl)methyl)-4-((cis)-bicyclo[3.1.0]hexan-3-yl)-1,4-dihydropyrazine-2,3-dione] gave an EC50 of 9 nM. Work on CC1(n2ccn(Cc3ccc(-n4nccn4)nn3)c(=O)c2=O)CC1 [Example 332, 1-((6-(2H-1,2,3-triazol-2-yl)pyridazin-3-yl)methyl)-4-(1-methylcyclopropyl)-1,4-dihydropyrazine-2,3-dione] yielded an EC50 of 76 nM. Work on N#CC1(n2ccn(Cc3ccc(-n4nccn4)nn3)c(=O)c2=O)CC1 [Example 333, 1-(4-((6-(2H-1,2,3-triazol-2-yl)pyridazin-3-yl)methyl)-2,3-dioxo-3,4-dihydropyrazin-1(2H)-yl)cyclopropane-1-carbonitrile] yielded an EC50 of 94 nM. CC1(n2ccn(Cc3ccc(-n4ccnn4)nn3)c(=O)c2=O)CC1 [Example 334, 1-((6-(1H-1,2,3-triazol-1-yl)pyridazin-3-yl)methyl)-4-(1-methylcyclopropyl)-1,4-dihydropyrazine-2,3-dione] gave an EC50 of 29 nM. Work on N#CC1(n2ccn(Cc3ccc(-n4ccnn4)nn3)c(=O)c2=O)CC1 [Example 335, 1-(4-((6-(1H-1,2,3-triazol-1-yl)pyridazin-3-yl)methyl)-2,3-dioxo-3,4-dihydropyrazin-1(2H)-yl)cyclopropane-1-carbonitrile] yielded an EC50 of 90 nM. With O=C1C(=O)N(C2CCCC2)CCN1Cc1ccc(-n2nccn2)nc1 [Example 336, 1-((6-(2H-1,2,3-triazol-2-yl)pyridin-3-yl)methyl)-4-cyclopentylpiperazine-2,3-dione] the EC50 was 20 nM. For O=c1c(=O)n(C2CCCC2)ccn1Cc1ncc(-c2ccccc2)cn1 [Example 337, 1-cyclopentyl-4-((5-phenylpyrimidin-2-yl)methyl)-1,4-dihydropyrazine-2,3-dione], the EC50 was 15 nM. N#CC1CCC(n2ccn(Cc3nnc(-c4ccccc4)s3)c(=O)c2=O)C1 (stereo not shown) [Example 338, 3-(2,3-dioxo-4-((5-phenyl-1,3,4-thiadiazol-2-yl)methyl)-3,4-dihydropyrazin-1(2H)-yl)cyclopentane-1-carbonitrile] showed an EC50 of 12 nM. With CCCOc1ccc(CN2CCN(C3CCCC3)C(=O)C2=O)nn1 [Example 339, 1-cyclopentyl-4-((6-propoxypyridazin-3-yl)methyl)piperazine-2,3-dione] the EC50 was 42 nM. CCOc1ccc(CN2CCN(C3CCCC3)C(=O)C2=O)nn1 [Example 340, 1-cyclopentyl-4-((6-ethoxypyridazin-3-yl)methyl)piperazine-2,3-dione] gave an EC50 of 70 nM. With O=C1C(=O)N(C2CCCC2)CCN1Cc1ncc(-c2ccccn2)cn1 [Example 342, 1-cyclopentyl-4-((5-(pyridin-2-yl)pyrimidin-2-yl)methyl)piperazine-2,3-dione] the EC50 was 69 nM. With O=C1C(=O)N(C2CCCC2)CCN1Cc1ncc(-c2cc(F)ccn2)cn1 [Example 343, 1-cyclopentyl-4-((5-(4-fluoropyridin-2-yl)pyrimidin-2-yl)methyl)piperazine-2,3-dione] the EC50 was 133 nM. Compound CC(C)(C)N1CCN(Cc2ncc(-c3ccccc3)cn2)C(=O)C1=O [Example 345, 1-(tert-butyl)-4-((5-phenylpyrimidin-2-yl)methyl)piperazine-2,3-dione] has an EC50 of 59 nM. In the case of O=C1C(=O)N(C2CCCC2)CCN1Cc1nnc(-c2ccccc2)s1 [Example 346, 1-cyclopentyl-4-((5-phenyl-1,3,4-thiadiazol-2-yl)methyl)piperazine-2,3-dione], the EC50 is reported as 7 nM. For CC(c1cnn(-c2ccccc2)c1)N1CCN(C2CCCC2)C(=O)C1=O (stereo not shown) [Example 347, 1-cyclopentyl-4-(1-(1-phenyl-1H-pyrazol-4-yl)ethyl)piperazine-2,3-dione], the EC50 was 74 nM. Work on C[C@H](c1nnc(-c2ccccc2)s1)N1CCN(C2CCCC2)C(=O)C1=O [Example 348, (R)-1-cyclopentyl-4-(1-(5-phenyl-1,3,4-thiadiazol-2-yl)ethyl)piperazine-2,3-dione] yielded an EC50 of 18 nM. For C[C@@H](c1nnc(-c2ccccc2)s1)N1CCN(C2CCCC2)C(=O)C1=O [Example 349, (S)-1-cyclopentyl-4-(1-(5-phenyl-1,3,4-thiadiazol-2-yl)ethyl)piperazine-2,3-dione], the EC50 was 25 nM. For O=C1C(=O)N(C2CCCC2)CCN1CCc1nnc(-c2ccccc2)s1 [Example 350, 1-cyclopentyl-4-(2-(5-phenyl-1,3,4-thiadiazol-2-yl)ethyl)piperazine-2,3-dione], the EC50 was 5 nM.
